Experiment [1] concerns human pancreatic MiaPaCa-2 cells. The experiment in a line: Tumor Cell Proliferation Assay (ATP Lite), MiaPaCa-2. The format is cell-based. The note with it: MIA PaCa-2, 96 h, 4 days, ATPlite, read-out: MiaPaCa2 cell proliferation IC50. The method, then:
(§1) Assay 2: Tumor Cell Proliferation Assays (ATP Lite)
(§2) Murine colon C26 (1500 cells/well), human melanoma A375 (2000 cells/well), or human pancreatic MiaPaCa-2 cells (2000 cells/well) were plated in white, 96 well plates (Corning) in growth media (DMEM with 10% fetal bovine serum, 2 mM glutamine for C26 and MiaPaCa-2, and RPMI with 10% fetal bovine serum, 2 mM glutamine for A375) and cultured overnight at 37° C. in a humidified, 5% CO2 incubator. Inhibitors were serially diluted in 100% DMSO and subsequently added to the cells, in growth media, to reach a final concentration of 0.25% DMSO. The cells were incubated for 4 days in the presence of the test compounds and the proliferation was quantitated using the ATPlite cell proliferation kit (Packard).

The next experiment relates to Murine colon C26 cells. The experiment in a line: Tumor Cell Proliferation Assay (ATP Lite), C26. The class given is cell-based. As to conditions: Mus musculus, 96 h, 4 days, ATPlite. As to the method:
as §1, §2

A further experiment deals with A375 Xenograft. As to the kind of experiment: Tumor Growth Inhibition in A375 Xenograft Studies (Malignant Melanoma Model). The format is in vivo, nude (nu/nu) mice. The note with it: A375 xenograft in male nude mice, to Day 14. The method, then:
In vivo Efficacy Evaluation: Tumor Growth Inhibition in A375 Xenograft Studies (Malignant Melanoma Model)
Male nude (nu/nu) mice (100 total, 24-26 g body wt) were purchased from Charles River Laboratories. Animals were injected subcutaneously above the right foreleg with 5×10^6 A375 cells in 100 ul of PBS. Tumors were measured with calipers 4, 7, 11 and 14 days after cells were implanted. Tumor length (l) and width (w) were measured and tumor volume was calculated with the equation l*w^2/2. At 16 days after cancer cells were implanted, tumors had reached an average volume of 93 mm^3, at which time the animals were sorted into 6 groups so that each group had the same mean tumor volume. The vehicle used for dosing the compound in suspension was 10% Tween 80 in water.
Treatments began on the afternoon of the 16th day after cancer cell injections, which was designated as Day 0. Tumor volume and body weight was measured for each animal 3 times per week until Day 14. On Day 14, all animals were euthanized, tumors removed and weighted.

For a further experiment, the target named is human MEK1 (Homo sapiens, UniProt Q02750, S218E/S222E). The experiment in a line: MEK-1 Enzyme Assay (LANCE-HTRF). The class given is biochemical. As to conditions: MEK-1 EE, ERK-2K52A substrate, 9 uM ATP, 1.5 hrs. The method, then: Assay 1: MEK-1 Enzyme Assay (LANCE-HTRF)
Chain of human MEK1 (Q02750 whole entry S218E/S222E): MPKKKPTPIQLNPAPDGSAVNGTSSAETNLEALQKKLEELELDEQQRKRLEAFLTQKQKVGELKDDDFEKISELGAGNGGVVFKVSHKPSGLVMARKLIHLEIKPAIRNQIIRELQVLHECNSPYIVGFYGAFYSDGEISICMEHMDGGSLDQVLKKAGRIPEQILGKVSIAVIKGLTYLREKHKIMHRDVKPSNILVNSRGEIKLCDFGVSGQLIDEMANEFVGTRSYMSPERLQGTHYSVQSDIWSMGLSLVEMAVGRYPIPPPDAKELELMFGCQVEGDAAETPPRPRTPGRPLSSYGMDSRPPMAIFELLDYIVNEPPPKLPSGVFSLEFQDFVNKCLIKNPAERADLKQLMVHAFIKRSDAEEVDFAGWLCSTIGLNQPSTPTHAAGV
Inhibition of human MEK1 kinase activity was monitored with a homogenous, fluorescence-based assay. The assay uses time resolved fluorescence resonance energy transfer to probe for phosphorylation of ERK1 by MEK1. The detailed procedure is described in the following:
Constititutively active MEK-1 EE (150 ng/well) and ERK-2K52A (110 ng/well) were incubated in black, 384 well Optiplates (Perkin Elmer) for 1.5 hrs at room temperature, in the presence of increasing concentrations of inhibitors. The total reaction volume was 50 ul. The inhibitors were serial diluted in kinase buffer (9 uM ATP, 50 mM Tris-Hcl pH 8.0, 10 mM MgCl2, 1 mM DTT and 100 uM Na3VO4), to a final concentration of 1% DMSO. At the end of the incubation, the enzyme reaction was quenched by adding 50 ul of assay buffer containing 50 mM Tris-Hcl, 50 mM EDTA, 0.1% BSA and a mixture of 1.25 ug/mL europium labeled anti-phosphotyrosine mAb (Perkin Elmer) and 5 ug/mL of allophycocyanin labeled anti-GST antibody (CIS-US). Plates were agitated on a plate shaker for 30 minutes and the phosphorylation of the ERK-2K52A substrate was measured by homogeneous time resolved fluorescence (HTRF) at 340 nm excitation and […] emission filters on the VICTOR V fluorescence plate reader. Phosphorylation is expressed as a ratio of 665 nM signal×10,000/615 nM signal. To assess the inhibitory potential of the compounds, IC50-values were determined.

In experiment [2] the test system is human melanoma A375 cells. As to the kind of experiment: Tumor Cell Proliferation Assay (ATP Lite), A375. The format is cell-based. As to conditions: A-375, 96 h, 4 days, ATPlite. As to the method: as §1, §2

SMILES strings stand for the structures.

In the case of `Nc1nnc(-c2ccncc2Nc2ccc(I)cc2F)o1` [Example 2, [4-(5-Amino-[1,3,4]oxadiazol-2-yl)-pyridin-3-yl]-(2-fluoro-4-iodo-phenyl)-amine], the IC50 (in experiment [1]; with Murine colon C26 cells; against human MEK1; in experiment [2]) was at most 3000 nM each time. Besides, the entries for the “effect on tumor growth” value in the experiment with A375 Xenograft (dose of 0.5 mg/kg) and in the experiment with A375 Xenograft (dose of 10 mg/kg) were “significant tumor growth inhibition” and “tumor regression”, respectively.

Turning to `Nc1nnc(-c2c(F)cncc2Nc2ccc(I)cc2F)o1` [Example 48, [4-(5-Amino-[1,3,4]oxadiazol-2-yl)-5-fluoro-pyridin-3-yl]-(2-fluoro-4-iodo-phenyl)-amine], the IC50 (in experiment [1]; with Murine colon C26 cells; at human MEK1; in experiment [2]) was at most 3000 nM throughout.

`OCC(O)CNc1nnc(-c2ccncc2Nc2ccc(I)cc2F)o1` (centres unmarked) [Example 11, 3-{5-[3-(2-Fluoro-4-iodo-phenylamino)-pyridin-4-yl]-[1,3,4]oxadiazol-2-ylamino}-propane-1,2-diol]: the IC50 (in experiment [1]; in the experiment with Murine colon C26 cells; against human MEK1; in experiment [2]) was at most 3000 nM each time.

In the case of `Nc1nnc(-c2ccncc2Nc2ccc(Br)cc2F)o1` [Example 34, [4-(5-Amino-[1,3,4]oxadiazol-2-yl)-pyridin-3-yl]-(4-bromo-2-fluoro-phenyl)-amine], the IC50 (in experiment [1]; in the experiment with Murine colon C26 cells; on human MEK1; in experiment [2]) was at most 3000 nM throughout.

On to `Cc1nnc(-c2ccncc2Nc2ccc(I)cc2F)o1` [Example 13, (2-Fluoro-4-iodo-phenyl)-[4-(5-methyl-[1,3,4]oxadiazol-2-yl)-pyridin-3-yl]-amine], for which the IC50 (in experiment [1]; with Murine colon C26 cells; at human MEK1; in experiment [2]) was at most 3000 nM in each case.

In the case of `CN(C)c1nnc(-c2ccncc2Nc2ccc(I)cc2F)o1` [Example 42, [4-(5-Dimethylamino-[1,3,4]oxadiazol-2-yl)-pyridin-3-yl]-(2-fluoro-4-iodo-phenyl)-amine], the IC50 (in experiment [1]; with Murine colon C26 cells; on human MEK1; in experiment [2]) was at most 3000 nM each time.

Consider `Fc1cc(I)ccc1Nc1cnccc1-c1nnc(NCCN2CCOCC2)o1` [Example 20, (2-Fluoro-4-iodo-phenyl)-{4-[5-(2-morpholin-4-yl-ethylamino)-[1,3,4]oxadiazol-2-yl]-pyridin-3-yl}-amine], for which the IC50 (in experiment [1]; in the experiment with Murine colon C26 cells; against human MEK1; in experiment [2]) was at most 3000 nM in each case.

Consider `COc1ccc(Nc2cnccc2-c2nnc(N)o2)c(F)c1` [Example 25, [4-(5-Amino-[1,3,4]oxadiazol-2-yl)-pyridin-3-yl]-(2-fluoro-4-methoxy-phenyl)-amine], for which the IC50 (in experiment [1]; in the experiment with Murine colon C26 cells; against human MEK1; in experiment [2]) was at most 3000 nM each time.

On to `NC(=O)CNc1nnc(-c2ccncc2Nc2ccc(I)cc2F)o1` [Example 46, 2-{5-[3-(2-Fluoro-4-iodo-phenylamino)-pyridin-4-yl]-[1,3,4]oxadiazol-2-ylamino}-acetamide], for which the IC50 (in experiment [1]; in the experiment on Murine colon C26 cells; at human MEK1; in experiment [2]) was at most 3000 nM in each case.

`CCOC(=O)Nc1nnc(-c2ccncc2Nc2ccc(I)cc2F)o1` [Example 26, {5-[3-(2-Fluoro-4-iodo-phenylamino)-pyridin-4-yl]-[1,3,4]oxadiazol-2-yl}-carbamic acid ethyl ester]: the IC50 (in experiment [1]; in the experiment on Murine colon C26 cells; against human MEK1; in experiment [2]) was at most 3000 nM in each case.

Take `Fc1cc(I)ccc1Nc1cnccc1-c1cn[nH]c1` [Example 65, (2-Fluoro-4-iodo-phenyl)-[4-(1H-pyrazol-4-yl)-pyridin-3-yl]-amine]: the IC50 (in experiment [1]; in the experiment on Murine colon C26 cells; against human MEK1; in experiment [2]) was at most 3000 nM throughout.

`OCc1nnc(-c2ccncc2Nc2ccc(I)cc2F)[nH]1` [Example 32, {5-[3-(2-Fluoro-4-iodo-phenylamino)-pyridin-4-yl]-4H-[1,2,4]triazol-3-yl}-methanol]: the IC50 (in experiment [1]; in the experiment with Murine colon C26 cells; against human MEK1; in experiment [2]) was at most 3000 nM each time.

Regarding `Nc1nnc(-c2ccncc2Nc2ccc(I)cc2F)[nH]1` [Example 41, [4-(5-Amino-4H-[1,2,4]triazol-3-yl)-pyridin-3-yl]-(2-fluoro-4-iodo-phenyl)-amine], the IC50 (in experiment [1]; with Murine colon C26 cells; against human MEK1; in experiment [2]) was at most 3000 nM throughout.

For the molecule `CNc1nnc(-c2ccncc2Nc2ccc(I)cc2F)o1` [Example 16, (2-Fluoro-4-iodo-phenyl)-[4-(5-methylamino-[1,3,4]oxadiazol-2-yl)-pyridin-3-yl]-amine], the IC50 (in experiment [1]; in the experiment with Murine colon C26 cells; against human MEK1; in experiment [2]) was at most 3000 nM each time.

As for `Nc1nnc(-c2ccncc2Nc2ccc(I)cc2F)s1` [Example 54, [4-(5-Amino-[1,3,4]thiadiazol-2-yl)-pyridin-3-yl]-(2-fluoro-4-iodo-phenyl)-amine], the IC50 (in experiment [1]; in the experiment with Murine colon C26 cells; against human MEK1; in experiment [2]) was at most 3000 nM each time.

Consider `CC1(C)OCC(CNc2nnc(-c3ccncc3Nc3ccc(I)cc3F)o2)O1` (centres unmarked) [Example 10, (4-{5-[(2,2-Dimethyl-[1,3]dioxolan-4-ylmethyl)-amino]-[1,3,4]oxadiazol-2-yl}-pyridin-3-yl)-(2-fluoro-4-iodo-phenyl)-amine], for which the IC50 (in experiment [1]; in the experiment on Murine colon C26 cells; on human MEK1; in experiment [2]) was at most 3000 nM each time.

As for `Fc1cc(I)ccc1Nc1cncc(-c2ccccc2F)c1-c1c[nH]nn1` [Example 60, (2-Fluoro-4-iodo-phenyl)-[5-(2-fluoro-phenyl)-4-(1H-[1,2,3]triazol-4-yl)-pyridin-3-yl]-amine], the IC50 (in experiment [1]; with Murine colon C26 cells; at human MEK1; in experiment [2]) was at most 3000 nM each time.

On to `O=C(O)CNc1nnc(-c2ccncc2Nc2ccc(I)cc2F)o1` [Example 45, {5-[3-(2-Fluoro-4-iodo-phenylamino)-pyridin-4-yl]-[1,3,4]oxadiazol-2-ylamino}-acetic acid], for which the IC50 in experiment [1] is 3000 to 25000 nM; with Murine colon C26 cells, 3000 to 25000 nM; against human MEK1, at most 3000 nM; in experiment [2] it was at most 3000 nM.
